In US10995073B2 (CANCER RESEARCH TECHNOLOGY LIMITED, priority 2014, dated 2021):

Molecular target: Human Full Length PARG (Homo sapiens (Human), UniProt Q86W56)
Assay: PARG assay (in vitro enzyme, TR-FRET)
Settings: PARG biochemical activity; read-out: PARG_EC50_ENZYME
Experimental: PARG In vitro assays were conducted in a total volume of 15 ul in a standard 384 well format. 5 ul of Human Full Length PARG (Produced internally by Astra Zeneca), used at a final reaction concentration of […], was added to 5 ul of Ribosylated PARP substrate (also produced internally by Astra Zeneca) at final reaction concentration of 4.5 nM in assay buffer (50 mM Tris pH7.4, 0.1 mg/ml BSA, 3 mM EDTA, 0.4 mM EGTA, 1 mM DTT, 0.01% Tween 20, 50 mM KCl). The reaction was incubated at room temperature for 10 minutes and then 5 ul detection reagent was added. Detection Reagent consists of 42 nM MAb Anti-6HIS XL665 (CisBio: 61 HISXLB) and 2.25 nM Streptavidin Europium Cryptate (CisBio: 610SAKLB), both at 3× working stock concentrations (final concentrations of 14 nM and 0.75 nM respectively), in a detection buffer of 50 mM Tris pH7.4, BSA at 0.1 mg/ml and KF at 100 mM. Following incubation at room temperature for 60 minutes in the dark, TR-FRET signal was measured at Ex 340 and Em 665 and Em 620. A ratio was calculated as Em665/EM620x104 for each well and used to calculate percent inhibition for test compounds.

Sequence of Human Full Length PARG (Q86W56 whole entry): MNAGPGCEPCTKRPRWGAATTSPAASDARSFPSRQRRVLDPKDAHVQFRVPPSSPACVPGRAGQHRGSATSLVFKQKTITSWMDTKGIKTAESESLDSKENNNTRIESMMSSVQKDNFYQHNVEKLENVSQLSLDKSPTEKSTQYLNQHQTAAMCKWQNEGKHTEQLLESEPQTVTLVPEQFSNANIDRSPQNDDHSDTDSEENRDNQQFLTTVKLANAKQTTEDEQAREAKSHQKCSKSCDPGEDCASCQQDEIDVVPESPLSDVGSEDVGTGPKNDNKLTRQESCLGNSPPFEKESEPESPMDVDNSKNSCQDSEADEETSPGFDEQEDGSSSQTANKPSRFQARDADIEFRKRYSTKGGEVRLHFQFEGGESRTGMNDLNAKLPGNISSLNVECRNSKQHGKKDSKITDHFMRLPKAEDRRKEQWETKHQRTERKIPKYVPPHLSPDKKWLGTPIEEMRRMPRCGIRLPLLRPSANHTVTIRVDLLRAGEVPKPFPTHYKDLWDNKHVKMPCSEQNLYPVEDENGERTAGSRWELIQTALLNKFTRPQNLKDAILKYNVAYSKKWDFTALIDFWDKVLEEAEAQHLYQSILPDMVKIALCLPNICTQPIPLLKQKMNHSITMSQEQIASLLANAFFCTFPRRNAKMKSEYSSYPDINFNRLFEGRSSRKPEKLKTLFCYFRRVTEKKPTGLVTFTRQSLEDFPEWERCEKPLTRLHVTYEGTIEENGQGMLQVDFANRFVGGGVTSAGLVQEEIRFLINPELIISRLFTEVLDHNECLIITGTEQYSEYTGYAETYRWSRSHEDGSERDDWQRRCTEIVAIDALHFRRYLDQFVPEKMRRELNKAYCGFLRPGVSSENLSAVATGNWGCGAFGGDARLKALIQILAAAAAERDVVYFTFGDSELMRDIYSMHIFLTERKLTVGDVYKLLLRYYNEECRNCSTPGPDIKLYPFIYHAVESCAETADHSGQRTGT

| SMILES | EC50 [µM] |
| --- | --- |
| Cn1c(=O)n(-c2nnc(N)s2)c2cc(S(=O)(=O)NC3(C)CC3)ccc21 [Example 81, 3-(5-Amino-1,3,4-thiadiazol-2-yl)-1-methyl-N-(1-methylcyclopropyl)-2-oxo-benzimidazole-5-sulfonamide] | 1.55 |
| Cc1nsc(-n2c(=O)n(C)c3ccc(S(=O)(=O)NC4(CF)CC4)cc32)n1 [Example 177] | 12.2 |
